Literature values in publication PMC8147660 (The Prostate, 2018).

What was measured:
[1] = biological target: PSA; conditions: read-out: PSA Ki; described in previous studies
[2] = biological target: chymotrypsin; conditions: read-out: Ki for chymotrypsin; described in previous studies
[3] = cleared via A2M-receptor/LRP in the liver

Row | Substance | Ki [1] [nM] | Ki [2] [nM] | Plasma half-life of the complex [3]
1 | Ahx-FSQn(boro)Bpg | 72 | 580 | 
2 | PSA-A2M: PSA complexed with the serum protease inhibitor alpha-2-macroglobulin |  |  | a few minutes
